According to patent publication US20230277536A1, “METHODS AND COMPOSITIONS FOR TREATING EWING FAMILY OF TUMORS” (priority 2021, published 2023):

How the values were obtained:
[1] = system: A673 cell line; assay: In vitro cell proliferation assay (EdU labeling, high-content screening); type: cell-based; conditions: A673, EWSR1-FLI1 translocation; 72 hrs exposure, 2-fold dilutions from 200 nM; FIG. 1A
Protocol: (§1) In vitro cell proliferation assays were performed to test the sensitivity of Ewing tumor cell lines to treatment with YM155. The A673 and SK-N-MC cell lines, each of which have the EWSR1-FLI1 translocation that is characteristic of most cases of Ewing tumors, were seeded in 96-well plates at 2×10^3 cells/well and allowed to attach overnight at 37° C. and 5% CO2. The cells were exposed to YM155 at designated concentrations (2-fold serial dilutions starting from 200 nM) for 72 hrs.
(§2) Following drug exposure, the cells were labeled with 5-ethynyl-2′- deoxyuridine (EdU) to assess the tumor cell proliferation rates. The labeling lasted 4 hours in the presence of drug exposure. […]
(§3) The labeled cells were fixed with formaldehyde for 30 min, followed by staining with Hoechst 33342 in a buffer containing 0.5% triton X-100. The incorporated Edu was detected by Click-iT reaction where fixed cells were incubated with a reaction mixture containing 1X Click-iT EdU reaction buffer, CuSO4, and azide-conjugated fluorescent dye in the dark. […]
(§4) The stained tumor cells were imaged by a high-content screening (HCS) platform (Thermo Scientific Cellomics Array Scan XTi HCS reader). […] From the images fluorescent signals for cell nucleus and the EdU incorporated in newly synthesized DNA were obtained from the HCS reader. […] The IC50 was calculated from the dose response curve of drug inhibition.

[2] = system: SK-N-MC cell line; assay: as above; type: cell-based; conditions: EWSR1-FLI1 translocation, 72 hrs exposure, 2-fold dilutions from 200 nM, FIG. 1B
Protocol: as §1, §2, §3, §4

[3] = system: A673 cells; assay: Apoptosis assays (Annexin V/PI and caspase 3 activity, flow cytometry); type: cell-based; conditions: 10 nM, 3 days drug exposure, vs DMSO, FIGS. 2A-2D
Protocol: (§5) Cellular apoptosis was then assayed with the Alexa Fluor™ 488 Annexin V/Dead cell apoptosis Kit (ThermoFisher®, USA) and GreenNuc™ live cell caspase 3 activity assay kit (Beyotime Biotechnology, China). Briefly, cells cultured in 6-well tissue culture plates were treated with 10 nM YM155 or DMSO (control). Following 3 days drug exposure, the cells were collected and assayed for apoptosis according to the manufacturers' instructions. For annexin V assay, the cell suspensions were incubated with Alexa Flour™ 488 labeled annexin V and Propidium Iodide (PI). For the caspase 3 activity assay, a caspase 3 substrate was added to generate fluorescent product. The cells were then analyzed on a BD LSR Fortessa cell analyzer. Flow cytometry data was analyzed with Flowjo software.

[4] = system: SK-N-MC cells; assay: as above; type: cell-based; conditions: 10 nM, 3 days drug exposure, vs DMSO, FIGS. 3A-3D
Protocol: as §5

[5] = system: SK-N-MC xenograft; assay: Murine SK-N-MC xenograft Ewing tumor model; type: in vivo, mice
[6] = system: EWS-FLI1; assay: Western-blot analysis of EWS-FLI1 expression level; type: cell-based; conditions: A673 and SK-N-MC cells, 10 nM, 12-48 hrs; FIG. 5
Protocol: (§6) Western-blot analysis was performed to examine the suppression by YM155 on the expression level of EWS-FLI1, the protein product of EWSR1-FLI1 translocation, and its effector proteins MYC and cyclin D1. In brief, A673 and SK-N-MC cells seeded on 6-well plates were treated with 10 nM YM155 for 12-48 hrs. The cells were then harvested and lysed in a lysis buffer containing protease inhibitor cocktail (Beyotime, China) at 4C. The concentrations of total protein in the cell lysates were determined by BCA Protein Assay Kit (ThermoFisher, USA). Forty micrograms of total protein was used in each lane for SDS-PAGE and western-blot assay. Antibodies against EWS-FLI1, MYC, and cyclin D1 were used to detect the expression levels of the proteins. GAPDH was used as a loading control.

[7] = system: MYC; assay: Western-blot analysis of MYC expression level; type: cell-based; conditions: A673 and SK-N-MC cells, 10 nM, 12-48 hrs; FIG. 5
Protocol: as §6

[8] = system: cyclin D1; assay: Western-blot analysis of cyclin D1 expression level; type: cell-based; conditions: A673 and SK-N-MC cells, 10 nM, 12-48 hrs; FIG. 5
Protocol: as §6

[9] = system: A673 xenograft; assay: Murine A673 xenograft Ewing tumor model
Protocol: The dosing schedules in FIG. 4B are as follows: YM155 monobromide, 3.5 mg/kg, 21-day-infusion with an osmotic pump; vincristine, 0.5 mg/kg, QW*3, IV; doxorubicin, 3.3 mg/kg, QW*3, IV; cyclophosphamide, 40 mg/kg, QW*3, IV. The dosing schedules in FIG. 4B are as follows: YM155 monobromide, 2 mg/kg, 21-day-infusion with an osmotic pump; ifosfamide, 30 mg/kg, QW*3, IV; etoposide, 7.5 mg/kg, QW*3, IP. […] The dosing schedules were as follows: YM155 monobromide, 3.5 mg/kg, 21-day-infusion with an osmotic pump; vincristine, 0.5 mg/kg, QW*3, IV; doxorubicin, 3.3 mg/kg, QW*3, IV; cyclophosphamide, 40 mg/kg, QW*3, IV.
To test for in vivo activity, a Ewing tumor model was generated by implanting either A673 or SK-N-MC cells into mice. When the tumor size reached 150 mm3, the mice were grouped randomly and injected with YM155 by 21-day infusion with an osmotic pump. The tumor size was measured every three days.

Substance: 1-(2-Methoxyethyl)-2-methyl-4,9-dioxo-3-(pyrazin-2-ylmethyl)-4,9-dihydro-1H-naphtho[2,3-d] imidazolium bromide [YM155]
- sensitivity to YM155 in in vitro cell proliferation assay [1]: highly sensitive
- sensitivity to YM155 in in vitro cell proliferation assay [2]: highly sensitive
- apoptosis induction [3]: induced strong apoptosis
- apoptosis induction [4]: induced strong apoptosis
- effect on tumor growth ([5]; SK-N-MC xenograft in mice, 3.5 mg/kg, 21-day infusion with osmotic pump, FIG. 4C): strong inhibitory effect on tumor growth
- efficacy compared with vincristine standalone therapy ([5]; SK-N-MC xenograft, YM155 3.5 mg/kg 21-day infusion vs vincristine 0.5 mg/kg QW*3 IV): superior
- efficacy compared with vincristine/doxorubicin/cyclophosphamide triple therapy ([5]; SK-N-MC xenograft, YM155 3.5 mg/kg 21-day infusion vs vincristine 0.5, doxorubicin 3.3, cyclophosphamide 40 mg/kg QW*3 IV): superior
- protein expression of EWS-FLI1 [6]: inhibited protein expression
- protein expression of MYC [7]: inhibited protein expression
- protein expression of cyclin D1 [8]: inhibited protein expression
- effect on tumor growth ([9]; A673 xenograft in mice, 21-day infusion with osmotic pump, 3.5 or 2 mg/kg, FIGS. 4A-4B): strong inhibitory effect on tumor growth
- efficacy compared with ifosfamide/etoposide combination therapy ([9]; A673 xenograft, YM155 2 mg/kg 21-day infusion vs ifosfamide 30 mg/kg QW*3 IV, etoposide 7.5 mg/kg QW*3 IP): superior
- efficacy compared with vincristine standalone therapy ([9]; A673 xenograft, YM155 3.5 mg/kg 21-day infusion vs vincristine 0.5 mg/kg QW*3 IV): superior
- efficacy compared with vincristine/doxorubicin/cyclophosphamide triple therapy ([9]; A673 xenograft, YM155 3.5 mg/kg 21-day infusion vs vincristine 0.5, doxorubicin 3.3, cyclophosphamide 40 mg/kg QW*3 IV): superior
